The values below come from ChEMBL document CHEMBL3872220, “Amphiphilic xanthones as a potent chemical entity of anti-mycobacterial agents with membrane-targeting properties” (Eur J Med Chem, 2016).

In brackets after ≈: the same amount, converted by molar mass.

The first experiment has as its system Mycobacterium tuberculosis variant bovis. The experiment can be described thus: Antimycobacterial activity against Mycobacterium bovis BCG ATCC 35734 after 5 days by broth dilution assay. Type of experiment: functional. The conditions noted are these: ATCC 35734, 120 h. (In general: In broth dilution the organism is exposed to a series of concentrations in liquid medium.)
Broadly, the MIC90 is the lowest concentration that inhibits either 90% of growth or 90% of the strains tested, depending on the study. Read a low MIC90 as greater potency. Consider `COc1c(OCC(O)CNCCNCCNCCN)cc2oc3cc(OCC(O)CNCCNCCNCCN)c(CC=C(C)C)c(O)c3c(=O)c2c1CC=C(C)C` (centres undefined), for which the MIC90 is > 30 µM.

As for `COc1c(OCC(O)CNCCN)cc2oc3cc(OCC(O)CNCCN)c(CC=C(C)C)c(O)c3c(=O)c2c1CC=C(C)C` (centres undefined), the MIC90 is > 30 µM.

Consider `COc1c(OCC(=O)NC(CCCNC(=N)N)C(N)=O)cc2oc3cc(OCC(=O)NC(CCCNC(=N)N)C(N)=O)c(CC=C(C)C)c(O)c3c(=O)c2c1CC=C(C)C` (centres undefined), for which the MIC90 was > 30 µM.

The compound `CCN(CC)CC(O)COc1cc2oc3cc(OCC(O)CN(CC)CC)c(OC)c(CC=C(C)C)c3c(=O)c2c(O)c1CC=C(C)C` (centres undefined) registered an MIC90 of 6.4 µM (≈ 4.28 µg/mL).

With `COc1c(OCCCCN2CCSCC2)cc2oc3cc(OCCCCN4CCSCC4)c(CC=C(C)C)c(O)c3c(=O)c2c1CC=C(C)C`, the MIC90 stood at 30 µM (≈ 21.8 µg/mL).

Consider `COC(=O)C(Cc1cnc[nH]1)NC(=O)COc1cc2oc3cc(OCC(=O)NC(Cc4cnc[nH]4)C(=O)OC)c(OC)c(CC=C(C)C)c3c(=O)c2c(O)c1CC=C(C)C` (centres undefined), for which the MIC90 was > 30 µM.

Compound `COC(=O)C(CCCNC(=N)N)NC(=O)COc1cc2oc3cc(OCC(=O)NC(CCCNC(=N)N)C(=O)OC)c(OC)c(CC=C(C)C)c3c(=O)c2c(O)c1CC=C(C)C` (centres undefined) had an MIC90 of 12.8 µM (≈ 11.1 µg/mL).

On to `CCN(CC)CCCCCCCOc1cc2oc3cc(OCCCCCCCN(CC)CC)c(OC)c(CC=C(C)C)c3c(=O)c2c(O)c1CC=C(C)C`, for which the MIC90 was found to be 6.4 µM (≈ 4.79 µg/mL).

With `CO[C@H]1/C=C/O[C@@]2(C)Oc3c(C)c(O)c4c(O)c(c(/C=N/N5CCN(C)CC5)c(O)c4c3C2=O)NC(=O)/C(C)=C\C=C\[C@H](C)[C@H](O)[C@@H](C)[C@@H](O)[C@@H](C)[C@H](OC(C)=O)[C@@H]1C` [RIFAMPIN], the MIC90 stood at 0.02 µM (≈ 0.0165 µg/mL).

With `COc1c(OCC(O)CNCCNC(=N)N)cc2oc3cc(OCC(O)CNCCNC(=N)N)c(CC=C(C)C)c(O)c3c(=O)c2c1CC=C(C)C` (centres undefined), the MIC90 was > 30 µM.

For `CCCCN(CC)CCCCOc1cc2oc3cc(OCCCCN(CC)CCCC)c(OC)c(CC=C(C)C)c3c(=O)c2c(O)c1CC=C(C)C`, the MIC90 amounted to 3.2 µM (≈ 2.31 µg/mL).

Take `COc1c(OCC(O)CNC(CO)(CO)CO)cc2oc3cc(OCC(O)CNC(CO)(CO)CO)c(CC=C(C)C)c(O)c3c(=O)c2c1CC=C(C)C` (centres undefined): the MIC90 is > 30 µM.

For `CCN(CC)CCCOc1cc2oc3cc(OCCCN(CC)CC)c(OC)c(CC=C(C)C)c3c(=O)c2c(O)c1CC=C(C)C`, the MIC90 is 6.4 µM (≈ 4.08 µg/mL).

`CCN(CC)CCOc1cc2oc3cc(OCCN(CC)CC)c(OC)c(CC=C(C)C)c3c(=O)c2c(O)c1CC=C(C)C` had an MIC90 of 6.4 µM (≈ 3.9 µg/mL).

For `CN[C@@H]1[C@H](O[C@H]2[C@H](O[C@H]3[C@H](O)[C@@H](O)[C@H](N=C(N)N)[C@@H](O)[C@@H]3N=C(N)N)O[C@@H](C)[C@]2(O)C=O)O[C@@H](CO)[C@H](O)[C@H]1O` [STREPTOMYCIN], the MIC90 was determined as 0.39 µM (≈ 0.227 µg/mL).

With `NNC(=O)c1ccncc1` [ISONIAZID], the MIC90 is 6.25 µM (≈ 0.857 µg/mL).

`COc1c(OCCCCN(C)C)cc2oc3cc(OCCCCN(C)C)c(CCC(C)C)c(O)c3c(=O)c2c1CCC(C)C`: the MIC90 is 6.4 µM (≈ 3.92 µg/mL).

For `CC[C@@H](CO)NCCN[C@@H](CC)CO` [ETHAMBUTOL], the MIC90 came to 6.25 µM (≈ 1.28 µg/mL).

Regarding `CCN(CC)CCCCOc1ccc2c(=O)c3c(O)cc(OCCCCN(CC)CC)cc3oc2c1`, the MIC90 was > 30 µM.

Compound `CCN(CC)CCCCOc1cc2oc3cc(OCCCCN(CC)CC)c(OC)c(CCC(C)C)c3c(=O)c2c(O)c1CCC(C)C` showed an MIC90 of 6.4 µM (≈ 4.28 µg/mL).

As to `CCCN(CCC)CC(O)COc1cc2oc3cc(OCC(O)CN(CCC)CCC)c(OC)c(CC=C(C)C)c3c(=O)c2c(O)c1CC=C(C)C` (centres undefined), the MIC90 was found to be 6.4 µM (≈ 4.64 µg/mL).

For the compound `COc1c(OCCCCN2CCOCC2)cc2oc3cc(OCCCCN4CCOCC4)c(CC=C(C)C)c(OCCCCN4CCOCC4)c3c(=O)c2c1CC=C(C)C`, the MIC90 is 12.8 µM (≈ 10.7 µg/mL).

In turn, `CCN(CC)CCCCOc1cc2oc3cc(OCCCCN(CC)CC)c(OC)c(CC=C(C)C)c3c(=O)c2c(OCCCCN(CC)CC)c1CC=C(C)C` had an MIC90 of 6.4 µM (≈ 5.07 µg/mL).

The next experiment shares this test system. The experiment can be described thus: Bactericidal activity against Mycobacterium bovis BCG ATCC 35734 assessed as log reduction in bacterial colonies up to 8 times MIC measured after 24 hrs by time-kill assay. Type of experiment: functional, Mycobacterium tuberculosis variant bovis BCG.
Settings: not given
In the case of `NNC(=O)c1ccncc1` [ISONIAZID], the Activity turned out to be 2.6.
